Data reported in patent US8313751B2, “Compositions and methods for the prophylaxis or treatment of viral diseases” (priority 2003, dated 2012).
“Also recorded” adds a separate entry of the source. Like-named read-outs stand apart in the source and are kept apart here.

Columns and labels:
[1] = tested on: influenza A virus strain fowl plague virus (FPV); assay type: cell-based
[2] = tested on: influenza A virus strain fowl plague virus (FPV); assay type: cell-based; remark: listed apart in the source
[3] = tested on: influenza virus (fowl plague virus, FPV); parameters: species or system C57 Bl/6 mice; conditions: mouse, in vivo
[4] = tested on: influenza virus (fowl plague virus, FPV); conditions: mouse, in vivo, ip
[5] = tested on: influenza virus; conditions: cited from earlier work

## CC(=O)Oc1ccccc1C(=O)O [ASA, acetylsalicylic acid]
[1]
  antiviral effectivity in vitro: have not shown in vitro any antiviral effectivity
  inhibition of the virus multiplication: 2 log steps
[2]
  inhibiting effect on virus multiplication: > 2 log steps
  reduction of the virus titers by a factor: 10
[3]
  animals that survived the infection: approx. 40%
  antiviral effect compared with lower concentrations: comparatively not stronger; also recorded: clearly less antivirally effective
  average survival time of the dead animals versus control group: clearly longer
  influenza virus multiplication in the lung and in the total organism: distinct inhibition
  viruses in the lung: Smaller doses of ASA more clearly reduced the viruses in the lung than higher doses
[4]
  animals that survived the infection: approx. 20%
  average survival time of the dead animals versus control group: clearly longer
  body weight: distinct reduction in body weight
[5]
  concentration from which inhibition of influenza virus infections in cell culture was observed: 5 to 10 mM
[5]; conversion of the mM values
  concentration from which inhibition of influenza virus infections in cell culture was observed: 0.9 to 1.8 mg/mL

## S=C(S)N1CCCC1 [PDTC, pyrrolidine dithiocarbamate]
[1]
  reduction of the virus titers: approx. 10 fold
